{"source": "patent US9676758B2", "about": "“1-heteroaryl-indoline-4-carboxamides as modulators of GPR52 useful for the treatment or prevention of disorders related thereto” (Arena Pharmaceuticals, Inc., priority 2015, dated 2017)", "key": {"[1]": {"system": "male C57/BL6 mice", "assay": "Mouse basal locomotor activity", "type": "in vivo", "conditions": "po", "procedure": "To measure basal locomotor activity, male C57/BL6 mice (8-16 weeks) (Jackson Laboratories, Sacramento, Calif.) were transferred in home cages to the testing room approximately 60 minutes prior to testing. Approximately 15 minutes after arrival in the testing room, a dark cycle commenced, with lights turning off and infrared lights turning on for experimenter visibility. Thirty minutes after the lights were turned off, animals were individually weighed and administered either vehicle (20% hydroxypropyl-β-cyclodextrin) Compound 13 (1, 2, 5, 10, or 20 mg/kg P.O.), or another GPR52 agonist (10 mg/kg P.O.) and returned to home cages. Fifteen minutes later, mice were placed into locomotor cages and activity was recorded for 60 minutes."}, "[2]": {"system": "male Sprague-Dawley rats", "assay": "Catalepsy (vertical grid) in rats", "type": "in vivo, rat", "conditions": "Compound 13 5-100 mg/kg P.O., haloperidol 0.1, 0.3, or 1 mg/kg S.C., 45 minutes post-dose", "procedure": "Catalepsy is used as a model for detecting extrapyramidal side effects of antipsychotic drugs. […] The rats were removed from home cages 45 minutes later and placed on a vertical stainless steel grid, and the latency to move both forepaws from their starting position was measured for a maximum of 30 seconds. The test was repeated three times consecutively.\nCatalepsy is expressed as the average latency to move both forepaws over the three trials. Latency increased in the rats administered haloperidol (see FIG. 27B), but was unchanged in rats administered Compound 13 (see FIG. 27A)."}, "[3]": {"system": "male Sprague-Dawley rats", "assay": "Amphetamine-stimulated locomotor activity in rats", "type": "in vivo, rat", "conditions": "0.5, 1, 2, 5, 10, and 20 mg/kg P.O., amphetamine 0.5 mg/kg SC, FIG. 24", "procedure": "Fifteen minutes later, rats were injected with amphetamine (0.5 mg/kg SC in volume of 1 mL/kg). Activity was then measured for 90 minutes."}, "[4]": {"system": "male 129Sv/Ev mice", "assay": "Prepulse inhibition of the startle response in mice", "type": "in vivo, mouse", "conditions": "mice with relatively low PPI; Compound 13 10 mg/kg P.O.; FIG. 25A", "procedure": "Prepulse inhibition testing was conducted in enclosed startle chambers (Kinder Scientific StartleMonitor System, Kinder Scientific, Poway, Calif.) in which animals were placed into restrainers secured onto startle-sensing plates. A constant background white noise of 65 dB was audible in the chambers throughout testing. […]\nFor each animal, mean startle amplitude for each trial type during the 35-trial block was calculated, and percent prepulse inhibition (% PPI) for each prepulse intensity was calculated as the percent decrease in the mean startle amplitude in response to a given prepulse and 120 dB startle stimulus relative to the mean startle amplitude in response to the 120 dB startle stimulus alone. The % PPI was then calculated for each animal as the mean % PPI across all four prepulse intensities. […]"}, "[5]": {"system": "male Sprague-Dawley rats", "assay": "Rat basal locomotor activity", "conditions": "0.5, 1, 2, 5, 10, and 20 mg/kg P.O.", "protocol": "Locomotor activity was assessed in a photocell monitoring caging system (Kinder Scientific MotorMonitor System, Kinder Scientific, Poway, Calif.). Each cage consisted of a standard plastic rodent cage (24×45.5 cm) placed inside a stainless steel frame. Infrared photocell beams were located across the long axis of the frame. Interruption of a photocell beam due to movement of the animal in front of a beam was recorded and used as a measure of ambulatory activity. Photocell beam interruptions were automatically recorded by a computer system. Perforated cage tops were placed on top of the test enclosures during testing.\nActivity was then measured for the following 30 minutes. Animals were naïve to the testing apparatus prior to performing the test. Activity is expressed as the total number of ambulations over the 30 minutes of locomotor testing (i.e., 30-60 minutes post-injection)."}, "[6]": {"assay": "Brain penetration (plasma and brain exposure)", "type": "in vivo, mouse", "conditions": "PO dose 3 mg/kg; male C57BL6 mice; 60 minute time point", "procedure": "Plasma and brain exposure were evaluated to determine the brain penetration of compounds described herein. Male C57BL6 mice were administered a single per oral (PO) dose of compound at 3 or 10 mg/kg (as a free base) formulated in 20% HPCD in 0.9% NaCl. Blood and brain samples were collected 60 minutes post-dose (n=3-6 animals). Blood was collected via cardiac puncture and stored on ice prior to the separation of plasma by centrifugation. Brains were extracted from the cranium and frozen on dry ice. Tissue samples were stored at approximately −80° C. prior to bioanalytical analysis.\nAnalyte plasma and brain concentrations were determined by LC/MS/MS."}}}
{"smiles": "O=C(NCCO)c1cccc2c1CCN2c1cc(Cc2cccc(C(F)(F)F)c2)ccn1", "note": "[Compound 13, N-(2-Hydroxyethyl)-1-(4-(3-(trifluoromethyl)benzyl)pyridin-2-yl)indoline-4-carboxamide]", "values": [{"measurement": "inhibition at 10 mg/kg", "setting": "[1]; 10 mg/kg P.O.", "result": 70, "unit": "%"}, {"measurement": "ED50", "setting": "[1]; 1 h, P.O., activity recorded for 60 minutes, read-out: ED50 (% Inhibition in Mouse Basal Locomotor Activity)", "result": 2.7, "unit": "mg/kg"}, {"measurement": "catalepsy: average latency to move both forepaws", "setting": "[2]", "result": "unchanged"}, {"measurement": "amphetamine-stimulated locomotion", "setting": "[3]", "result": "blocked amphetamine-stimulated locomotion at several doses"}, {"measurement": "basal % PPI in 'poor performers'", "setting": "[4]", "result": "increased"}, {"measurement": "basal locomotor activity", "setting": "[5]", "result": "significant reduction in basal locomotor activity was only seen at the highest dose"}, {"measurement": "Brain/Plasma Ratio", "setting": "[6]", "result": 3.51}]}
